# Experimental data published in PMC8635778 (Angewandte Chemie (International ed. in English), 2020).
# Legend:
# [1] = system: papillary RCC cell line (ACHN) orthotopic xenograft; assay: fluorescence imaging of orthotopic papillary RCC xenograft; type: in vivo, mice; conditions: cancerous vs normal kidney tissue
# [2] = mouse, in vivo, iv
smiles,measurement,setting,value
"CC1(C)C(/C=C/C=C/C=C/C=C2\N(CCCCS(=O)(=O)O)c3ccc4ccccc4c3C2(C)C)=[N+](CCCCS(=O)(=O)[O-])c2ccc3ccccc3c21 [ICG, indocyanine green]",hyperfluorescent imaging of RCC in the kidneys (in words),[1],failed to hyperfluorescently light up RCC
same,amount found in the feces,[2],85.3 % ID
same,"amount in feces, times higher than ICG-PEG45",[2],29.8 times
